Laboratory results taken from ChEMBL document CHEMBL4706764, “PROTAC-Mediated Degradation of Janus Kinase as a Therapeutic Strategy for Cancer and Rheumatoid Arthritis” (ACS Med Chem Lett, 2021).

Molecular target: Protein cereblon/Tyrosine-protein kinase JAK2 (Homo sapiens, UniProt O60674+Q96SW2)
Experiment: PROTAC activity at CRBN/JAK2 in human MHHCALL4 cells assessed as protein degradation by immunoblot analysis
Type: cell-based

Protein cereblon/Tyrosine-protein kinase JAK2, sequence (O60674 whole entry): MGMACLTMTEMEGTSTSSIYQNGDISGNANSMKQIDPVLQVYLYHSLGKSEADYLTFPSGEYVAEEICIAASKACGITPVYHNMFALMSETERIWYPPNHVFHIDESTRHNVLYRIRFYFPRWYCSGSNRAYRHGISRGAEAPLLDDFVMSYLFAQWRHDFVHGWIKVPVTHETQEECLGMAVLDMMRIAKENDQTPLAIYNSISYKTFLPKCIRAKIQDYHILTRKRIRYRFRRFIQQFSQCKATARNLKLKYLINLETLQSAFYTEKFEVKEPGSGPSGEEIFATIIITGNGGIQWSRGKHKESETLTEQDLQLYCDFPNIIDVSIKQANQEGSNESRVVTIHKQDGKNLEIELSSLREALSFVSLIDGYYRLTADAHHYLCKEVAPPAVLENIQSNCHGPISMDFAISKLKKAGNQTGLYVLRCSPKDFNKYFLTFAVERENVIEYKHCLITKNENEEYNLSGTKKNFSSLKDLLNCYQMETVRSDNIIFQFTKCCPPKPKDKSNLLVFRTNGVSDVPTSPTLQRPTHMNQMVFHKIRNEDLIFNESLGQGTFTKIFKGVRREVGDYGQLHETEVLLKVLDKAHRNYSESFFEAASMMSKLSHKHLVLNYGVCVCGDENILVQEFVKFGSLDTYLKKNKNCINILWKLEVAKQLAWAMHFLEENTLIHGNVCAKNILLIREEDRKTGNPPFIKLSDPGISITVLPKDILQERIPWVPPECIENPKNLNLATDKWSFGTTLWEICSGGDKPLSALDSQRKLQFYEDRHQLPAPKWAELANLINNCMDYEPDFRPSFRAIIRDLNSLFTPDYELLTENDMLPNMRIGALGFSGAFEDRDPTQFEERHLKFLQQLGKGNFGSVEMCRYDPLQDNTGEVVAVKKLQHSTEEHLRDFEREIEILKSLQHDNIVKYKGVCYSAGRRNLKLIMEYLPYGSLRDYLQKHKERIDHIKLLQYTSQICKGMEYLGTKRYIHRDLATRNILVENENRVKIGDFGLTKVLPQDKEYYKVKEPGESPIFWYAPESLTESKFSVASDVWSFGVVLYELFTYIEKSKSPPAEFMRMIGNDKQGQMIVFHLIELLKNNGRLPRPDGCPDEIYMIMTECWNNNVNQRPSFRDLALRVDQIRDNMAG
Protein cereblon/Tyrosine-protein kinase JAK2, sequence (Q96SW2 whole entry): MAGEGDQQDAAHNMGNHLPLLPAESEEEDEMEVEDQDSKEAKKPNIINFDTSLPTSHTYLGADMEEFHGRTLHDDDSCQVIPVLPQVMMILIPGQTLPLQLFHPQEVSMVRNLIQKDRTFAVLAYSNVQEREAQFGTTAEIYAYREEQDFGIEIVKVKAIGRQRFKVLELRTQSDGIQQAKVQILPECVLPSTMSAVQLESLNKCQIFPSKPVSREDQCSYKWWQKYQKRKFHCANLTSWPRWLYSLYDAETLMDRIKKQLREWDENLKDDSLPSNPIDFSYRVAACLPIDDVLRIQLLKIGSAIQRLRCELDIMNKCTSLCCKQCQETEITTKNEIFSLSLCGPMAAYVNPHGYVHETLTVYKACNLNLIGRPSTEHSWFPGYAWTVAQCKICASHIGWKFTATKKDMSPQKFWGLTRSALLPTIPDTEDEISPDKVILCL

EC50 | Compound
0.2 nM | CCCn1cc(-c2nc(Nc3ccc(C(=O)NCCCCNc4cccc5c4C(=O)N(C4CCC(=O)NC4=O)C5=O)cc3)nc3[nH]ccc23)cn1 (stereo not drawn)
2300 nM | CCCn1cc(-c2nc(Nc3ccc(C(=O)NCCOCCOCCOCCOCCNc4cccc5c4C(=O)N(C4CCC(=O)NC4=O)C5=O)cc3)nc3[nH]ccc23)cn1 (stereo not drawn)
1100 nM | CCCn1cc(-c2nc(Nc3ccc(C(=O)NCCOCCOCCOCCOCCOCCNc4cccc5c4C(=O)N(C4CCC(=O)NC4=O)C5=O)cc3)nc3[nH]ccc23)cn1 (stereo not drawn)
720 nM | CCCn1cc(-c2nc(Nc3ccc(C(=O)NCCOCCOCCOCCOCCOCCOCCNc4cccc5c4C(=O)N(C4CCC(=O)NC4=O)C5=O)cc3)nc3[nH]ccc23)cn1 (stereo not drawn)
3.9 nM | N#CC[C@H](C1CCCC1)n1cc(-c2nc(Nc3ccc(C(=O)NCCCCNc4cccc5c4C(=O)N(C4CCC(=O)NC4=O)C5=O)cc3)nc3[nH]ccc23)cn1 (stereo partly drawn)
0.9 nM | CCCn1cc(-c2nc(Nc3ccc(C(=O)NCCCCCNc4cccc5c4C(=O)N(C4CCC(=O)NC4=O)C5=O)cc3)nc3[nH]ccc23)cn1 (stereo not drawn)
0.5 nM | CCCn1cc(-c2nc(Nc3ccc(C(=O)NCCCNc4cccc5c4C(=O)N(C4CCC(=O)NC4=O)C5=O)cc3)nc3[nH]ccc23)cn1 (stereo not drawn)
0.5 nM | CCCn1cc(-c2nc(Nc3ccc(C(=O)NCCCCCNc4cccc5c4CN(C4CCC(=O)NC4=O)C5=O)cc3)nc3[nH]ccc23)cn1 (stereo not drawn)
